One assay has as its system RS4;11 cells. Briefly: Cell viability assay (CellTiter-Glo) in RS4;11 cells. Type of assay: cell-based. The conditions noted are these: Homo sapiens, 72 h; RS4;11 ALL cells treated for three days; read-out: cell viability inhibition IC50. The method in brief:
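Three-day compound treatment of RS4;11 ALL cells (5000/well, 3-fold dilution series of 8 or 12 points), with IC50 from a nonlinear least-squares fit to CellTiter-Glo viability data.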
On the technique in general: In ATP-based viability assays light output follows the ATP content of the culture.
The IC50 is the concentration that inhibits the measured activity by half. Take `Cc1cnc(Nc2ccc(N3CCN(CC(=O)NCCCCCNc4cccc5c4C(=O)N(C4CCC(=O)NC4=O)C5=O)CC3)cc2)nc1Nc1cccc(S(=O)(=O)NC(C)(C)C)c1` (centres unmarked) [JA-093, 2-(4-(4-((4-((3-(N-(tert-butyl)sulfamoyl)phenyl)amino)-5-methylpyrimidin-2-yl)amino)phenyl)piperazin-1-yl)-N-(5-((2-(2,6-dioxopiperidin-3-yl)-1,3-dioxoisoindolin-4-yl)amino)pentyl)acetamide]: the IC50 was below 100 nM.

In the case of `Cc1cnc(Nc2ccc(N3CCN(CC(=O)NCCCCCCNc4cccc5c4C(=O)N(C4CCC(=O)NC4=O)C5=O)CC3)cc2)nc1Nc1cccc(S(=O)(=O)NC(C)(C)C)c1` (centres unmarked) [JA-094, 2-(4-(4-((4-((3-(N-(tert-butyl)sulfamoyl)phenyl)amino)-5-methylpyrimidin-2-yl)amino)phenyl)piperazin-1-yl)-N-(6-((2-(2,6-dioxopiperidin-3-yl)-1,3-dioxoisoindolin-4-yl)amino)hexyl)acetamide], the IC50 is below 100 nM.

Still in this assay, the particulars now being: Homo sapiens, 72 h; RS4;11 cells; cell viability, 3 days, CellTiter-Glo; read-out: IC50.
`Cc1ncsc1-c1ccc(CNC(=O)[C@@H]2C[C@@H](O)CN2C(=O)[C@@H](NC(=O)COCCOCCOCCOCCOCC(=O)N2CCN(c3ccc(Nc4nc5cccc(-c6ccc(S(C)(=O)=O)cc6)n5n4)cc3)CC2)C(C)(C)C)cc1` [JA-083, (2S,4R)-1-((S)-2-(tert-Butyl)-20-(4-(4-((5-(4-(methylsulfonyl)phenyl)-[1,2,4]triazolo[1,5-a]pyridin-2-yl)amino)phenyl)piperazin-1-yl)-4,20-dioxo-6,9,12,15,18-pentaoxa-3-azaicosanoyl)-4-hydroxy-N-(4-(4-methylthiazol-5-yl)benzyl)pyrrolidine-2-carboxamide]: the IC50 is above 10000 nM.

For the molecule `CS(=O)(=O)c1ccc(-c2cccc3nc(Nc4ccc(N5CCN(C(=O)CCCCCCCNc6cccc7c6C(=O)N(C6CCC(=O)NC6=O)C7=O)CC5)cc4)nn23)cc1` (centres unmarked) [JA-084, 2-(2,6-Dioxo-piperidin-3-yl)-4-[8-(4-{4-[5-(4-methanesulfonyl-phenyl)-[1,2,4]triazolo[1,5-a]pyridin-2-ylamino]-phenyl}-piperazin-1-yl)-8-oxo-octylamino]-isoindole-1,3-dione], the IC50 is above 10000 nM.

With `CS(=O)(=O)c1ccc(-c2cccc3nc(Nc4ccc(N5CCN(C(=O)CCOCCOCCOCCNc6cccc7c6C(=O)N(C6CCC(=O)NC6=O)C7=O)CC5)cc4)nn23)cc1` (centres unmarked) [JA-085, 2-(2,6-Dioxo-piperidin-3-yl)-4-[2-(2-{2-[3-(4-{4-[5-(4-methanesulfonyl-phenyl)-[1,2,4]triazolo[1,5-a]pyridin-2-ylamino]-phenyl}-piperazin-1-yl)-3-oxo-propoxy]-ethoxy}-ethoxy)-ethylamino]-isoindole-1,3-dione], the IC50 turned out to be 3950 nM.

On to `Cc1cnc(Nc2ccc(N3CCN(CC(=O)NCCOCCOCCNc4cccc5c4C(=O)N(C4CCC(=O)NC4=O)C5=O)CC3)cc2)nc1Nc1cccc(S(=O)(=O)NC(C)(C)C)c1` (centres unmarked) [JA-086, 2-(4-(4-((4-((3-(N-(tert-Butyl)sulfamoyl)phenyl)amino)-5-methylpyrimidin-2-yl)amino)phenyl)piperazin-1-yl)-N-(2-(2-(2-((2-(2,6-dioxopiperidin-3-yl)-1,3-dioxoisoindolin-4-yl)amino)ethoxy)ethoxy)ethyl)acetamide], for which the concentration for half-maximal inhibition (IC50) was 564 nM.

`Cc1cnc(Nc2ccc(N3CCN(CC(=O)NCCOCCNc4cccc5c4C(=O)N(C4CCC(=O)NC4=O)C5=O)CC3)cc2)nc1Nc1cccc(S(=O)(=O)NC(C)(C)C)c1` (centres unmarked) [JA-087, 2-(4-(4-((4-((3-(N-(tert-Butyl)sulfamoyl)phenyl)amino)-5-methylpyrimidin-2-yl)amino)phenyl)piperazin-1-yl)-N-(2-(2-((2-(2,6-dioxopiperidin-3-yl)-1,3-dioxoisoindolin-4-yl)amino)ethoxy)ethyl)acetamide]: the IC50 turned out to be 143 nM.

In the case of `Cc1cnc(Nc2ccc(N3CCN(CC(=O)NCCOCCOCCOCCNc4cccc5c4C(=O)N(C4CCC(=O)NC4=O)C5=O)CC3)cc2)nc1Nc1cccc(S(=O)(=O)NC(C)(C)C)c1` (centres unmarked) [JA-088, 2-(4-(4-((4-((3-(N-(tert-Butyl)sulfamoyl)phenyl)amino)-5-methylpyrimidin-2-yl)amino)phenyl)piperazin-1-yl)-N-(2-(2-(2-(2-((2-(2,6-dioxopiperidin-3-yl)-1,3-dioxoisoindolin-4-yl)amino)ethoxy)ethoxy)ethoxy)ethyl)acetamide], the IC50 amounted to 369 nM.

On to `Cc1cnc(Nc2ccc(N3CCN(CC(=O)NCCOCCOCCOCCOCCNc4cccc5c4C(=O)N(C4CCC(=O)NC4=O)C5=O)CC3)cc2)nc1Nc1cccc(S(=O)(=O)NC(C)(C)C)c1` (centres unmarked) [JA-089, 2-(4-(4-((4-((3-(N-(tert-Butyl)sulfamoyl)phenyl)amino)-5-methylpyrimidin-2-yl)amino)phenyl)piperazin-1-yl)-N-(14-((2-(2,6-dioxopiperidin-3-yl)-1,3-dioxoisoindolin-4-yl)amino)-3,6,9,12-tetraoxatetradecyl)acetamide], for which the half-maximal inhibitory concentration (IC50) worked out at 975 nM.

`Cc1cnc(Nc2ccc(N3CCN(CC(=O)NCCNc4cccc5c4C(=O)N(C4CCC(=O)NC4=O)C5=O)CC3)cc2)nc1Nc1cccc(S(=O)(=O)NC(C)(C)C)c1` (centres unmarked) [JA-090, 2-(4-(4-((4-((3-(N-(tert-Butyl)sulfamoyl)phenyl)amino)-5-methylpyrimidin-2-yl)amino)phenyl)piperazin-1-yl)-N-(2-((2-(2,6-dioxopiperidin-3-yl)-1,3-dioxoisoindolin-4-yl)amino)ethyl)acetamide]: the IC50 is 3480 nM.

On to `Cc1cnc(Nc2ccc(N3CCN(CC(=O)NCCCNc4cccc5c4C(=O)N(C4CCC(=O)NC4=O)C5=O)CC3)cc2)nc1Nc1cccc(S(=O)(=O)NC(C)(C)C)c1` (centres unmarked) [JA-091, 2-(4-(4-((4-((3-(N-(tert-Butyl)sulfamoyl)phenyl)amino)-5-methylpyrimidin-2-yl)amino)phenyl)piperazin-1-yl)-N-(3-((2-(2,6-dioxopiperidin-3-yl)-1,3-dioxoisoindolin-4-yl)amino)propyl)acetamide], for which the IC50 stood at 2980 nM.

`Cc1cnc(Nc2ccc(N3CCN(CC(=O)NCCCCNc4cccc5c4C(=O)N(C4CCC(=O)NC4=O)C5=O)CC3)cc2)nc1Nc1cccc(S(=O)(=O)NC(C)(C)C)c1` (centres unmarked) [JA-092, 2-(4-(4-((4-((3-(N-(tert-Butyl)sulfamoyl)phenyl)amino)-5-methylpyrimidin-2-yl)amino)phenyl)piperazin-1-yl)-N-(4-((2-(2,6-dioxopiperidin-3-yl)-1,3-dioxoisoindolin-4-yl)amino)butyl)acetamide]: the IC50 came out at 2830 nM.

For the molecule `Cc1cnc(Nc2ccc(N3CCN(CC(=O)NCCCCCNc4cccc5c4C(=O)N(C4CCC(=O)NC4=O)C5=O)CC3)cc2)nc1Nc1cccc(S(=O)(=O)NC(C)(C)C)c1` (centres unmarked) [JA-093, 2-(4-(4-((4-((3-(N-(tert-butyl)sulfamoyl)phenyl)amino)-5-methylpyrimidin-2-yl)amino)phenyl)piperazin-1-yl)-N-(5-((2-(2,6-dioxopiperidin-3-yl)-1,3-dioxoisoindolin-4-yl)amino)pentyl)acetamide], the IC50 is 73.3 nM.

In the case of `Cc1cnc(Nc2ccc(N3CCN(CC(=O)NCCCCCCNc4cccc5c4C(=O)N(C4CCC(=O)NC4=O)C5=O)CC3)cc2)nc1Nc1cccc(S(=O)(=O)NC(C)(C)C)c1` (centres unmarked) [JA-094, 2-(4-(4-((4-((3-(N-(tert-butyl)sulfamoyl)phenyl)amino)-5-methylpyrimidin-2-yl)amino)phenyl)piperazin-1-yl)-N-(6-((2-(2,6-dioxopiperidin-3-yl)-1,3-dioxoisoindolin-4-yl)amino)hexyl)acetamide], the IC50 came to 74.4 nM.

Take `Cc1cnc(Nc2ccc(N3CCN(CC(=O)NCCCCCCCNc4cccc5c4C(=O)N(C4CCC(=O)NC4=O)C5=O)CC3)cc2)nc1Nc1cccc(S(=O)(=O)NC(C)(C)C)c1` (centres unmarked) [JA-095, 2-(4-(4-((4-((3-(N-(tert-Butyl)sulfamoyl)phenyl)amino)-5-methylpyrimidin-2-yl)amino)phenyl)piperazin-1-yl)-N-(7-((2-(2,6-dioxopiperidin-3-yl)-1,3-dioxoisoindolin-4-yl)amino)heptyl)acetamide]: the IC50 is 122 nM.

As to `Cc1cnc(Nc2ccc(N3CCN(CC(=O)NCCCCCCCCNc4cccc5c4C(=O)N(C4CCC(=O)NC4=O)C5=O)CC3)cc2)nc1Nc1cccc(S(=O)(=O)NC(C)(C)C)c1` (centres unmarked) [JA-096, 2-(4-(4-((4-((3-(N-(tert-Butyl)sulfamoyl)phenyl)amino)-5-methylpyrimidin-2-yl)amino)phenyl)piperazin-1-yl)-N-(8-((2-(2,6-dioxopiperidin-3-yl)-1,3-dioxoisoindolin-4-yl)amino)octyl)acetamide], the IC50 amounted to 158 nM.

In the case of `Cc1cnc(Nc2ccc(N3CCN(CC(=O)NCC(=O)N[C@H](C(=O)N4C[C@H](O)C[C@H]4C(=O)NCc4ccc(-c5scnc5C)cc4)C(C)(C)C)CC3)cc2)nc1Nc1cccc(S(=O)(=O)NC(C)(C)C)c1` [JA-097, (2S,4R)-1-((S)-2-(2-(2-(4-(4-((4-((3-(N-(tert-Butyl)sulfamoyl)phenyl)amino)-5-methylpyrimidin-2-yl)amino)phenyl)piperazin-1-yl)acetamido)acetamido)-3,3-dimethylbutanoyl)-4-hydroxy-N-(4-(4-methylthiazol-5-yl)benzyl)pyrrolidine-2-carboxamide], the IC50 is above 10000 nM.

Turning to `Cc1cnc(Nc2ccc(N3CCN(CC(=O)NCCC(=O)N[C@H](C(=O)N4C[C@H](O)C[C@H]4C(=O)NCc4ccc(-c5scnc5C)cc4)C(C)(C)C)CC3)cc2)nc1Nc1cccc(S(=O)(=O)NC(C)(C)C)c1` [JA-098, (2S,4R)-1-((S)-2-(3-(2-(4-(4-((4-((3-(N-(tert-Butyl)sulfamoyl)phenyl)amino)-5-methylpyrimidin-2-yl)amino)phenyl)piperazin-1-yl)acetamido)propanamido)-3,3-dimethylbutanoyl)-4-hydroxy-N-(4-(4-methylthiazol-5-yl)benzyl)pyrrolidine-2-carboxamide], the IC50 is above 10000 nM.

Consider `Cc1cnc(Nc2ccc(N3CCN(CC(=O)NCCCC(=O)N[C@H](C(=O)N4C[C@H](O)C[C@H]4C(=O)NCc4ccc(-c5scnc5C)cc4)C(C)(C)C)CC3)cc2)nc1Nc1cccc(S(=O)(=O)NC(C)(C)C)c1` [JA-099, (2S,4R)-1-((S)-2-(4-(2-(4-(4-((4-((3-(N-(tert-Butyl)sulfamoyl)phenyl)amino)-5-methylpyrimidin-2-yl)amino)phenyl)piperazin-1-yl)acetamido)butanamido)-3,3-dimethylbutanoyl)-4-hydroxy-N-(4-(4-methylthiazol-5-yl)benzyl)pyrrolidine-2-carboxamide], for which the IC50 worked out at 3700 nM.

As for `Cc1cnc(Nc2ccc(N3CCN(CC(=O)NCCCCC(=O)N[C@H](C(=O)N4C[C@H](O)C[C@H]4C(=O)NCc4ccc(-c5scnc5C)cc4)C(C)(C)C)CC3)cc2)nc1Nc1cccc(S(=O)(=O)NC(C)(C)C)c1` [JA-100, (2S,4R)-1-((S)-2-(5-(2-(4-(4-((4-((3-(N-(tert-Butyl)sulfamoyl)phenyl)amino)-5-methylpyrimidin-2-yl)amino)phenyl)piperazin-1-yl)acetamido)pentanamido)-3,3-dimethylbutanoyl)-4-hydroxy-N-(4-(4-methylthiazol-5-yl)benzyl)pyrrolidine-2-carboxamide], the IC50 is above 10000 nM.

The record behind these values is patent publication US20230093099A1, “COMPOUNDS AND METHODS OF TREATING CANCERS” (CULLGEN (SHANGHAI), INC., priority 2019, published 2023).
